From patent publication US20210207188A1, “BETA-LACTAM COMPOUNDS AND METHODS OF USE THEREOF” (priority 2018, published 2021)

Tests used:
IMP-1 = target: T1, IMP-1 (Serratia marcescens, UniProt P52699); assay type: biochemical; conditions: IMP-1; for fluorescence signal over time: probe 2.0 μM (MCW-002 1.1 μM, MCW-011 0.5 μM), PBS
T1 construct: His tag; made in house; host or cells: Escherichia coli
Method: (§1) Recombinant his-tagged beta-lactamases, including NDM-1, IMP-1, KPC-2, VIM-2 and OXA-48 were overexpressed in Escherichia coli. The enzymes were purified using HisTrap Ni-NTA columns. AmpC and TEM were purchased from commercial sources.
(§2) The fluorescence-based activity assays were performed in phosphate-buffer saline. The concentration of some of the compounds were determined by boiling the compounds in PBS solution until fluorescence signal was saturated. The amount of released fluorophore was quantified via fluorescence spectroscopy by comparing to a corresponding calibration curve.

KPC-2 = target: T2, KPC-2 (Klebsiella pneumoniae, UniProt Q9F663); assay type: biochemical; conditions: for fluorescence signal over time: probe 2.0 μM (MCW-002 1.1 μM, MCW-011 0.5 μM), PBS
T2 construct: His tag; made in house; host or cells: Escherichia coli
Method: as §1, §2

NDM-1 = target: T3, NDM-1 (Klebsiella pneumoniae, UniProt C7C422); assay type: biochemical; conditions: for fluorescence signal over time: probe 2.0 μM (MCW-002 1.1 μM, MCW-011 0.5 μM), PBS
T3 construct: His tag; made in house; host or cells: Escherichia coli
Method: as §1, §2

VIM-2 = target: T4, VIM-2 (Escherichia coli, UniProt Q5U7L7); assay type: biochemical; conditions: for fluorescence signal over time: probe 2.0 μM (MCW-011 0.5 μM), PBS
T4 construct: His tag; made in house; host or cells: Escherichia coli
Method: as §1, §2

[1] = test system: beta-lactamases, including NDM-1, IMP-1, VIM-2, KPC-2, OXA-48, AmpC, and TEM; assay: Fluorescence-based activity assay, whole panel of tested beta-lactamases; assay type: biochemical; conditions: for changes in the fluorescence signal with the tested beta-lactamases: probe 2.0 μM, MCW-010 within 20 minutes; for specificity among the tested beta-lactamases: conclusion from fluorescence signals
Method: as §1, §2
Among the tested beta-lactamases, NDM-1, IMP-1, VIM-2, KPC-2 and OXA-48 are carbapenemases, whereas AmpC and TEM are not. Nitrocefin was used as a control to test the activity of the beta-lactamases because it can be hydrolyzed by a wide range of beta-lactamases.

OXA-48 = target: T5, OXA-48 (Klebsiella pneumoniae, UniProt Q6XEC0); assay type: biochemical; conditions: for fluorescence signal over time: probe 2.0 μM (MCW-011 0.5 μM), PBS
T5 construct: His tag; made in house; host or cells: Escherichia coli
Method: as §1, §2

AmpC = assay: Activity of beta-lactamases towards probes (fluorescence-based activity assay), AmpC; assay type: biochemical; conditions: probe 2.0 μM (MCW-002 1.1 μM, MCW-011 0.5 μM), PBS
Method: as §1, §2

TEM = target: T6, TEM (Escherichia coli, UniProt P62593); assay: Activity of beta-lactamases towards probes (fluorescence-based activity assay), TEM; assay type: biochemical; conditions: probe 2.0 μM (MCW-002 1.1 μM, MCW-011 0.5 μM), PBS
T6 construct: purchased
Method: as §1, §2

[2] = test system: clinical isolates (CPE, Carbapenemase Producing Enterobacteriaceae, and Non CPE strains); assay: Selectivity of probes with clinical isolates in lysis buffer (visible light and UV light); assay type: cell-based; conditions: probe 10 μM
Method: The selectivity of some probes were evaluated with clinical isolates. The carbapenemases presence in the bacteria (CPE, i.e., Carbapenemase Producing Enterobacteriaceae) were verified by PCR (Polymerase Chain Reaction). 1 μL loop-full of each test bacterium from overnight-cultured LB agar plate were added to 100 μL PBS buffer with 0.5% CHAPS. The bacteria were vortexed to give a homogenious suspension and incubated for 15 min. To each of the bacteria-lysis buffer mixture (20 μL) were added quick test reagents (Probes (Final concentration=10 μM), CarbaNP solution A and CarbaNP solution B). CarbaNP solutions A and B were freshly prepared according to CLSI protocol, where solution A contains 10 mM zinc sulphate and phenol red buffer at pH=7.8±0.1 and solution B was a mixture of solution A with 3 mg/mL imipenem.

Compound	fluorescence signal over time (IMP-1)	fluorescence signal over time (KPC-2)	fluorescence signal over time (NDM-1)	fluorescence signal over time (VIM-2)	changes in the fluorescence signal with the tested beta-lactamases [1]	fluorescence signal over time (AmpC)	fluorescence signal over time (TEM)	specificity among the tested beta-lactamases [1]	other results
COc1ccc(-c2c3ccc(=O)cc-3oc3cc(OCc4ccc(C5=C(C(=O)O)N6C(=O)[C@H]([C@@H](C)O)[C@H]6C5)cc4)ccc23)c(C)c1 [MCW-009, (5R,6S)-6-((R)-1-hydroxyethyl)-3-(4-(((9-(4-methoxy-2-methylphenyl)-3-oxo-3H-xanthen-6-yl)oxy)methyl)phenyl)-7-oxo-1-azabicyclo[3.2.0]hept-2-ene-2-carboxylic acid]	increase in the fluorescent signal	increase in the fluorescent signal	increase in the fluorescent signal	increase in the fluorescent signal					time until hydrolysis reaction complete (fluorescent signal plateaued) (IMP-1; probe 2.0 μM): > 20 min; time until hydrolysis reaction complete (fluorescent signal plateaued) (KPC-2; probe 2.0 μM): > 20 min; time until hydrolysis reaction complete (fluorescent signal plateaued) (NDM-1; probe 2.0 μM): > 20 min; time until hydrolysis reaction complete (fluorescent signal plateaued) (VIM-2; probe 2.0 μM): > 20 min
COc1cc(COc2ccc3nc4ccc(=O)cc-4oc3c2)ccc1OC/C=C/C1=C(C(=O)N(C)O)N2C(=O)[C@H]([C@@H](C)O)[C@H]2C1 [MCW-006, (5R,6S)-N-hydroxy-6-((R)-1-hydroxyethyl)-3-((E)-3-(2-methoxy-4-(((3-oxo-3H-phenoxazin-7-yl)oxy)methyl)phenoxy)prop-1-en-1-yl)-N-methyl-7-oxo-1-azabicyclo[3.2.0]hept-2-ene-2-carboxamide]					unreactive to the tested beta-lactamases				
COc1ccc(-c2c3ccc(=O)cc-3oc3cc(OCc4ccc(OC/C=C/C5=C(C(=O)O)N6C(=O)[C@H]([C@@H](C)O)[C@H]6S5)c(OC)c4)ccc23)c(C)c1 [MCW-011, (5R,6S)-6-((R)-1-hydroxyethyl)-3-((E)-3-(2-methoxy-4-(((9-(4-methoxy-2-methylphenyl)-3-oxo-3H-xanthen-6-yl)oxy)methyl)phenoxy)prop-1-en-1-yl)-7-oxo-4-thia-1-azabicyclo[3.2.0]hept-2-ene-2-carboxylic acid]	increase in the fluorescent signal	increase in the fluorescent signal	increase in the fluorescent signal	increase in the fluorescent signal		minimal changes in the fluorescent signal	minimal changes in the fluorescent signal	specific for carbapenemases	fluorescence signal over time (OXA-48): increase in the fluorescent signal
COC(=O)C1=C(/C=C/COc2ccc(COc3ccc4nc5ccc(=O)cc-5oc4c3)cc2OC)C[C@@H]2[C@@H]([C@@H](C)O)C(=O)N12 [MCW-003, Methyl (5R,6S)-6-((R)-1-hydroxyethyl)-3-((E)-3-(2-methoxy-4-(((3-oxo-3H-phenoxazin-7-yl)oxy)methyl)phenoxy)prop-1-en-1-yl)-7-oxo-1-azabicyclo[3.2.0]hept-2-ene-2-carboxylate]					unreactive to the tested beta-lactamases				
C[C@@H](O)[C@H]1C(=O)N2C(C(=O)O)=C(c3ccc(COc4ccc5nc6ccc(=O)cc-6oc5c4)cc3[N+](=O)[O-])C[C@H]12 [MCW-010, (5R,6S)-6-((R)-1-hydroxyethyl)-3-(2-nitro-4-(((3-oxo-3H-phenoxazin-7-yl)oxy)methyl)phenyl)-7-oxo-1-azabicyclo[3.2.0]hept-2-ene-2-carboxylic acid]					did not exhibited changes in the fluorescence signal				
CC[Si](CC)(CC)O[C@H](C)[C@H]1C(=O)N2C(C(=O)O)=C(/C=C/COc3ccc(COc4ccc5nc6ccc(=O)cc-6oc5c4)cc3OC)C[C@H]12 [MCW-002, (5R,6S)-3-((E)-3-(2-methoxy-4-(((3-oxo-3H-phenoxazin-7-yl)oxy)methyl)phenoxy)prop-1-en-1-yl)-7-oxo-6-((R)-1-((triethylsilyl)oxy)ethyl)-1-azabicyclo[3.2.0]hept-2-ene-2-carboxylic acid]	pronounced increase in the fluorescent signal	minimal changes in the fluorescent signal	pronounced increase in the fluorescent signal			minimal changes in the fluorescent signal	minimal changes in the fluorescent signal	specific for NDM-1 and IMP-1, especially NDM-1	relative rate of hydrolysis reaction (IMP-1): slower compared to the reaction with NDM-1
C[C@@H](O)[C@H]1C(=O)N2C(C(=O)O)=C(c3ccc(COc4ccc5nc6ccc(=O)cc-6oc5c4)cc3)C[C@H]12 [MCW-008, (5R,6S)-6-((R)-1-hydroxyethyl)-7-oxo-3-(4-(((3-oxo-3H-phenoxazin-7-yl)oxy)methyl)phenyl)-1-azabicyclo[3.2.0]hept-2-ene-2-carboxylic acid]	increase in the fluorescent signal	increase in the fluorescent signal	increase in the fluorescent signal	increase in the fluorescent signal		minimal changes in the fluorescent signal	minimal changes in the fluorescent signal	specific for carbapenemases	fluorescence signal over time (OXA-48): increase in the fluorescent signal
COc1ccc(-c2c3ccc(=O)cc-3oc3cc(OCc4ccc(OC/C=C/C5=C(C(=O)O)N6C(=O)[C@H]([C@@H](C)O)[C@H]6C5)c(OC)c4)ccc23)c(C)c1 [MCW-004, (5R,6S)-6-((R)-1-hydroxyethyl)-3-((E)-3-(2-methoxy-4-(((9-(4-methoxy-2-methylphenyl)-3-oxo-3H-xanthen-6-yl)oxy)methyl)phenoxy)prop-1-en-1-yl)-7-oxo-1-azabicyclo[3.2.0]hept-2-ene-2-carboxylic acid]									3S/k (detection limit of the probe towards the carbapenemase) (IMP-1): 0.328 pM; Kcat (IMP-1; Michaelis-Menten kinetics): 47.3 ± 3.34 s⁻¹; Km (IMP-1; Michaelis-Menten kinetics): 1.74 ± 0.29 µM; 3S/k (detection limit of the probe towards the carbapenemase) (KPC-2): 5.28 pM; Kcat (KPC-2; Michaelis-Menten kinetics): 2.36 ± 0.22 s⁻¹; Km (KPC-2; Michaelis-Menten kinetics): 3.41 ± 0.59 µM; 3S/k (detection limit of the probe towards the carbapenemase) (NDM-1): 0.546 pM; Kcat (NDM-1; Michaelis-Menten kinetics): 23.5 ± 0.98 s⁻¹; Km (NDM-1; Michaelis-Menten kinetics): 1.57 ± 0.16 µM; 3S/k (detection limit of the probe towards the carbapenemase) (OXA-48): 24.9 pM; Kcat (OXA-48; Michaelis-Menten kinetics): 10.2 ± 0.74 s⁻¹; Km (OXA-48; Michaelis-Menten kinetics): 1.09 ± 0.12 µM; 3S/k (detection limit of the probe towards the carbapenemase) (VIM-2): 5.37 pM; Kcat (VIM-2; Michaelis-Menten kinetics): 2.28 ± 0.07 s⁻¹; Km (VIM-2; Michaelis-Menten kinetics): 1.88 ± 0.13 µM; signal with panel of clinical isolates ([2]; incubated for 15 min): observable fluorogenic signal in CPE strains but not the Non CPE strains; signal with panel of clinical isolates ([2]; incubated for 120 min): observable fluorogenic signal in CPE strains but not the Non CPE strains
